Data reported in US6030960A, “Method of treating hepatitis virus infections” (priority 1998, dated 2000).
≈ marks a conversion by molar mass, not a printed value. Read-outs that look alike come from different tables or passages of the source.

Experiments:
[1] = tested on: granulocyte/macrophage (CFU-GM); test: Cytotoxicity: inhibition of mouse granulocyte/macrophage (CFU-GM) colony formation; assay type: cell-based; conditions: read-out: inhibitory concentration 50% for colony formation (IC50)
Method: CP-51 and AZT were assayed for cytotoxicity by inhibition of mouse precursor erythrocyte (CFU-E) and granulocyte/macrophage (CFU-GM) cell colony formation. Mouse bone marrow precursor cells were suspended in soft-agar-RPMI-1640 medium supplmented with cell growth factors and serial concentrations of alkyl lipid.

[2] = tested on: HIV-1; assay type: in vivo; conditions: rat, single oral dose of 15 mg/kg by gavage
Method: The biologic activity of alkyl lipid CP-51 was evaluated in vivo. Sprague Dawley rats were fasted for 18 hours and received a single oral dose of 15 mg/kg of the alkyl lipid CP-51 by gavage. An in-dwelling carotid catheter was used to harvest whole blood at various times post-dose. The plasma containing the alkyl lipid was diluted 1:2 to 1:128 in phosphate buffered saline and assayed for biologic activity using the HIV-1 syncytial plaque test. CEM-SS cell monolayers were infected with HIV-1 and overlaid with RPMI-1640 medium containing serial dilutions of plasma. After incubation for five days at 37° C., the number of HIV-1 syncytial plaques was counted as previously described (Kucera et al., AIDS Res. Human Retroviruses, 6: 491-501, (1990)).

[3] = tested on: Friend-Leukemia virus; test: Inhibition of retrovirus-induced splenomegaly in Friend-Leukemia virus infected mice (Table 9); assay type: in vivo
Method: Mice were infected I.P. with Friend-Leukemia virus and not treated or treated I.P. with daily doses of phospholipid. After 14 days infection and treatment, the mice were sacrificed, the spleens were removed and weighed to determine the percentage, of control splenomegaly. […] Even a single dose of 25 mg/kg CP-51 inhibited splenomegaly by 36%.

[4] = tested on: mouse precursor erythrocyte (CFU-E); test: Cytotoxicity: inhibition of mouse precursor erythrocyte (CFU-E) colony formation; assay type: cell-based
Method: CP-51 and AZT were assayed for cytotoxicity by inhibition of mouse precursor erythrocyte (CFU-E) and granulocyte/macrophage (CFU-GM) cell colony formation.

[5] = tested on: HEP G2 cells persistently infected with HBV; test: Cytotoxicity in HBV persistently infected human HEP G2 cells, neutral red dye uptake (Table 5); assay type: cell-based
How it was run: (§1)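 HBV-transfected HEP-G2 monolayers in RPMI-1640 were given compound at four serial concentrations in triplicate for nine days at 37 °C, with periodic medium replacement. Toxicity from 0.01% neutral red uptake (A510), as percent of nine untreated control wells on the same plate.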

[6] = as above; assay type: cell-based; conditions: human, hep-g2 cells
How it was run: as §1

[7] = % of Control Neutral Red Dye Uptake
[8] = Trial 1, read-out: % of Control Neutral Red Dye Uptake
[9] = Trial 3, read-out: % of Control Neutral Red Dye Uptake

Structure (SMILES): CCCCCCCCCCCCCCCCCC(=O)NCC(COP(=O)([O-])OCC[N+](C)(C)C)OCC (racemic) [CP-51, rac-3-octadecanamido-2-ethyoxy-1-propylphosphocholine]
- IC50 [1]: 11 µg/mL (≈ 20 µM)
- absorption into the blood [2]: rapidly absorbed into the blood of rats
- biologically active concentrations in the blood (plasma) ([2]; HIV-1 syncytial plaque test): biologically active concentrations of the compound CP-51 were obtained in the blood (plasma)
- inhibition of retrovirus-induced splenomegaly ([3]; 12.5 mg/kg/day intraperitoneally): 43%
- % of Control Splenomegaly ([3]; 12.5 mg/kg/day, daily treatment): 43 % of Control
- % of Control Splenomegaly ([3]; 25 mg/kg, one treatment): 36 % of Control
- anti-retrovirus activity in infected animals ([3]; in words): has anti-retrovirus activity in infected animals
- inhibition of retrovirus-induced splenomegaly ([3]; single dose of 25 mg/kg): 36%
- cytotoxicity relative to AZT ([4]; CFU-E and CFU-GM, in words): significantly less cytotoxic than AZT
- IC50 ([4]; Mus musculus, Erythrocyte, read-out: inhibitory concentration 50% for colony formation (IC50)): 41 µg/mL (≈ 74.4 µM)
- Cell toxicity (greater than 50% depression of dye uptake) [5]: did not occur
- % of Control Neutral Red Dye Uptake ([5]; human, hep-g2 cells, 216 h, 3 µM): 101 ± 1 % of Control
- viability at 216 h, 3 µM [6, 7]: 98 ± 3%
- viability at 216 h, 10 µM [6, 7]: 102 ± 1%
- viability at 216 h, 30 µM [6, 7]: 100 ± 3%

Structure (SMILES): Nc1ccn([C@H]2CC[C@@H](CO)O2)c(=O)n1 [2',3'-dideoxycytidine, 2', 3'-dideoxycytidine, reference compound]
- viability at 216 h, 10 µM ([6]; Trial 1, 10 μM, read-out: % of Control Neutral Red Dye Uptake): 101 ± 2%
- viability at 216 h, 30 µM ([6]; Trial 1, 30 μM, read-out: % of Control Neutral Red Dye Uptake): 100 ± 1%
- viability at 216 h, 100 µM [6, 8]: 97 ± 2%
- viability at 216 h, 300 µM [6, 8]: 34 ± 4%
- viability at 216 h, 10 µM ([6]; Trial 2, 10 μM, read-out: % of Control Neutral Red Dye Uptake): 101 ± 3%
- viability at 216 h, 30 µM ([6]; Trial 2, 30 μM, read-out: % of Control Neutral Red Dye Uptake): 102 ± 2%
- viability at 216 h, 300 µM ([6]; Trial 2, read-out: % of Control Neutral Red Dye Uptake): 40 ± 4%
- viability at 216 h, 1000 µM ([6]; Trial 2, 1000 μM, read-out: % of Control Neutral Red Dye Uptake): 12 ± 5%
- viability at 216 h, 10 µM ([6]; Trial 3, 10 μM, read-out: % of Control Neutral Red Dye Uptake): 100 ± 1%
- viability at 216 h, 30 µM ([6]; Trial 3, 30 μM, read-out: % of Control Neutral Red Dye Uptake): 102 ± 1%
- viability at 216 h, 100 µM [6, 9]: 99 ± 2%
- viability at 216 h, 300 µM [6, 9]: 35 ± 2%
